Laboratory results reported in PMC6843786, “Temporin-SHa and Its Analogs as Potential Candidates for the Treatment of Helicobacter pylori” (Biomolecules, 2019).
Where two headings read alike, the source gives them in different places. Non-standard residues stand in square brackets, D forms with d. Residues, ends and D or L forms follow the SMILES beside them.

Columns and labels:
H. pylori (ATCC 43504) [1] = test system: H. pylori (ATCC 43504)
From the text: (§1) H. pylori used in this study were either the reference strain obtained from the American Type Culture Collection (ATCC 43504) or clinical strains received frozen from our collaborator Josette Raymond from Hospital Cochin, Paris. Strains were obtained from patients who underwent a gastroendoscopy performed for various gastro-intestinal disorders according to the recommendations of Haute Autorité de Santé (HAS). During the endoscopy, biopsy samples were taken from antrum and corpus. Samples were then crushed, and the material was used for bacterial culture and molecular methods. An antibiogram was performed and strains were then frozen at -80 °C in a broth with 10% glycerol. Bacteria were cultured as previously described. Briefly, H. pylori (ATCC 43504) was cultured in brain heart infusion (BHI) and incubated at 37 °C for 16 h in microaerophilic condition in BD GasPak EZ using BD GasPak EZ CampyPak container system sachets (BD Biosciences, Le Pont-de-Claix, France). For clinical strains, a sample from the frozen bacteria was streaked on Blood Agar (Base) (Sigma-Aldrich, Illkirch-Graffenstaden, France) supplemented with 5% horse defibrinated blood (Fisher Scientific, Les Ulis, France) and 2% isovitale-X (Fisher Scientific, Illkirch-Graffenstaden, France). The petri dishes were then incubated at 37 °C for 4–7 days in microaerophilic condition. Then, a colony is transferred to 3 mL Mueller Hinton (MH) broth supplemented with 10% fetal bovine serum (FBS) and 2% isovitale-X. The cultures were then incubated for 4–7 days until the bacteria grow before further experiments.
(§2) Briefly, after the growth of H. pylori in liquid culture the optical density (OD) of the bacterial suspensions were read at 600 nm and adjusted to one. Stock solutions of the peptides at 1 mM were prepared in sterile water. Bacteria were diluted in medium to reach bacterial density around 10^5 bacteria/mL. One-hundred microliters per well of bacterial suspension were then added into sterile polypropylene 96-well microplates (Greiner BioOne, Paris, France) and exposed to increasing concentrations of peptides (from zero to 100 µM, 1:2 serial dilution). […] Plates were incubated at 37 °C for 24 h for H. pylori (ATCC 43504) and for 4–7 days for the clinical strains. H. pylori was tested in microaerophilic conditions generated using micro-anaerobic BD GasPak system. At the end of the incubation, OD600nm was measured using microplate reader (Synergy Mx, Biotek, Colmar, France). The MIC was defined as the lowest concentration of drug that inhibited visible growth of the organism. Experiments were conducted in independent triplicate (n = 3).

[2] = test system: clinical strains of H. pylori; settings: for MIC: MH + 10% FBS + 2% isovitale-X
From the text: as §1, §2

N87 cells = assay: In vitro toxicity assay using human gastric cells (resazurin); assay type: cell-based
Experimental: [26] Human gastric cells N87 (ATCC CRL-5822) were cultured in RPMI-1640 medium supplemented with 10% fetal calf serum (FCS), 1% L-glutamine and 1% antibiotics (all from Invitrogen, Carlsbad, CA, USA) and were routinely seeded onto 25 cm^2 flasks maintained in a 5% CO2 incubator at 37 °C. For the toxicity assay, cells grown on 25 cm^2 flasks were detached using trypsin–EDTA solution (from Thermofisher), counted using Mallasez counting chamber and seeded into 96-well cell culture plates (Greiner Bio-one) at approximately 10^4 cells per well. The cells were left to grow for 48–72 h at 37 °C in a 5% CO2 incubator until they reached confluence. Plates were then aspirated and increasing concentrations of peptides were added to the cells for 48 h at 37 °C in a 5% CO2 incubator, volume of water corresponding to the volume of peptides being used as negative control. At the end of the incubation, wells were aspirated, and cell viability was evaluated using resazurin-based in vitro toxicity assay kit (Sigma-Aldrich) following manufacturer’s instructions. Briefly, resazurin stock solution was diluted 1:10 in sterile PBS containing calcium and magnesium (PBS^++, pH 7.4) and empty wells were filled with 100 µL of the diluted solution. After 4 h incubation at 37 °C, fluorescence intensity was measured using microplate reader (Synergy Mx, Biotek) with an excitation wavelength of 530 nm and an emission wavelength of 590 nm. The fluorescence values were normalized by the controls and expressed as percent viability.

H. pylori (ATCC 43504) [3] = test system: H. pylori (ATCC 43504); remark: listed apart in the source
Experimental: as §2
(§3) It is also rich with mucus to protect it from the aggressive acidity. For this reason, the impact of mucins and pepsin on the activity of the peptides was investigated. The impact of the gastric mucins on peptide activity was evaluated using a combination of commercial porcine stomach mucins MUC2 and MUC3 (Sigma–Aldrich) at a final concentration of 1 mg/mL sterilized using 0.2 µm filter. This concentration was used based on the estimated concentration of mucins present in the mucus in vivo [27]. The effect of mucins on peptides activity was evaluated by MIC and by time killing assay as explained below. The resistance of the peptides to pepsin was tested as previously described with some changes. […] This concentration was used since it corresponds the pepsin concentration in the stomach (0.5–1 mg/mL).

H. pylori (ATCC 43504) [4] = assay: MIC after digestion by pepsin (resistance to pepsin); settings: 4 h at 37 °C with pepsin 1 mg/mL in HCl pH 2
Experimental: as §2, §3

[5] = test system: total lipids extracted from H. pylori (ATCC 43504); assay: Lipid insertion assay (lipid monolayer, critical pressure of insertion); parameters: species or system biophysical; settings: peptide 1 µM, PBS pH 7.4, from the line fits of Figure 4
Experimental: Peptide-lipid interaction was measured using reconstituted lipid monolayer at the air-water interface as previously described. Total lipids were extracted from overnight cultures of H. pylori (ATCC 43504) using Folch extraction procedure as previously described. Extracted total lipids were dried, resolubilized in chloroform:methanol (2:1, v/v) and stored at -20 °C under nitrogen. For peptide-lipid interaction assay, total lipid extract was spread using a 50 μL Hamilton's syringe at the surface of 800 μL of sterile PBS creating a lipid monolayer at the air-water interface. Lipids were added until the surface pressure reached the desired value. […] The variation of the surface pressure caused by peptide injection was then continuously monitored using a fully automated microtensiometer (μTROUGH SX, Kibron Inc., Helsinki, Finland) until reaching equilibrium (maximal surface pressure increase being usually obtained after 15-25 min). […] Variation of surface pressure was plotted as a function of initial surface pressure and the critical pressure of insertion of each peptide into H. pylori lipids was calculated as the theoretical value of initial pressure of lipid monolayer not permissive to peptide insertion, i.e., giving a variation of pressure equal to 0 mN/m.

H. pylori (ATCC 43504) [6] = assay: Membrane permeabilization assay (propidium iodide); settings: not told
Experimental: Bacterial membrane permeabilization was evaluated using the cell-impermeable DNA/RNA probe propidium iodide as previously explained. Logarithmic growing bacterial suspension of H. pylori (ATCC 43504) was prepared from overnight bacterial suspension after 1:10 dilution. After 3 h incubation at 37 °C, in microaerophilic condition, bacterial suspensions were centrifuged for 5 min at 3000× g. Cell pellets were then resuspended in sterile PBS at about […]. Propidium iodide (solution at 1 mg/mL, Sigma Aldrich) was then added to the suspension at a final concentration of 60 µM. 100 µL of this suspension were then transferred into 96-well black plates and were exposed to increasing concentrations of peptides obtained by serial dilution (from zero to 100 µM, 1:2 dilution). […] Kinetics of fluorescence variations (excitation at 530 nm and emission at 590 nm) were then recorded over 240 min of incubation at 37 °C in micro-aerobic condition using a microplate reader (Biotek, Synergy Mx). The effect of the peptides on the membrane integrity was expressed in percentage of permeabilization, CTAB at 300 µM being used as positive control giving 100% permeabilization. All experiments were done in triplicate.

`CC[C@H](C)[C@H](NC(=O)[C@@H](C)NC(=O)[C@H](CO)NC(=O)[C@H](CC(C)C)NC(=O)[C@@H](N)Cc1ccccc1)C(=O)N[C@H](C(=O)NCC(=O)N[C@@H](CCSC)C(=O)N[C@@H](CC(C)C)C(=O)NCC(=O)N[C@@H](CCCCN)C(=O)N[C@@H](CC(C)C)C(=O)N[C@@H](Cc1ccccc1)C(N)=O)C(C)C` [NST2, H-Phe^1-Leu^2-Ser^3-D-Ala^4-Ile^5-Val^6-Gly^7-Met^8-Leu^9-Gly^10-Lys^11-Leu^12-Phe^13-NH2] (H-FLS[dA]IVGMLGKLF-NH2) was tested, and the “MIC on H. pylori (ATCC 43504)” value (H. pylori (ATCC 43504) [1]; MH medium, 24 h, microaerophilic) was 12.5 µM, the “MIC on H. pylori (ATCC 43504) in MH supplemented with 10% FBS” value (H. pylori (ATCC 43504) [1]; MH supplemented with 10% FBS) was 50 µM and the “reduction in the antibacterial activity compared to temporin-SHa” value (H. pylori (ATCC 43504) [1]; from MIC on H. pylori (ATCC 43504)) was 4 times. The “MIC values against resistant clinical strains (span over all strains)” value ([2]; all resistant clinical strains, MH + 10% FBS) was 50 to 100 µM, the MIC ([2]; clinical strain BM18, resistance Clari/Metro) was 50 µM and the MIC ([2]; clinical strain EM68, resistance Clari/Metro) was 100 µM. For the same compound, the MIC ([2]; clinical strain LN18, resistance Clari) was 50 µM, the MIC ([2]; clinical strain MF76, resistance Clari/Metro) was 50 µM and the MIC ([2]; clinical strain MP78, resistance Clari/Metro) was 50 µM. It also gave an MIC ([2]; clinical strain MS67, resistance Clari/Metro) of 50 µM, an MIC ([2]; clinical strain NM44, resistance Clari/Metro) of 50 µM and an IC50 (N87 cells; 48 h incubation, resazurin cell viability, read-out: IC50 on N87 Cells) of 1250 ± 240 µM. For the same compound, the “increase in toxicity to human gastric cells compared to temporin-SHa” value (N87 cells; from IC50 on N87 cells) was “around 1.2 fold”, the “increase of MIC in the presence of mucins” value (H. pylori (ATCC 43504) [3]; MUC2 and MUC3 at 1 mg/mL versus no mucins) was “two” and the “MIC in the Presence of mucins” value (H. pylori (ATCC 43504) [3]; porcine gastric mucins MUC2 and MUC3 at 1 mg/mL) was 25 µM. For the same compound, the “MIC after Digestion by Pepsin” value (H. pylori (ATCC 43504) [4]) was over 50 µM and the “critical pressure of insertion (CPI)” value [5] was 37.86 mN/m.

In the case of `CC[C@H](C)[C@H](NC(=O)[C@@H](C)NC(=O)[C@H](CO)NC(=O)[C@H](CC(C)C)NC(=O)[C@@H](N)Cc1ccccc1)C(=O)N[C@H](C(=O)N[C@H](C)C(=O)N[C@@H](CCSC)C(=O)N[C@@H](CC(C)C)C(=O)N[C@H](C)C(=O)N[C@@H](CCCCN)C(=O)N[C@@H](CC(C)C)C(=O)N[C@@H](Cc1ccccc1)C(N)=O)C(C)C` [NST5, H-Phe^1-Leu^2-Ser^3-D-Ala^4-Ile^5-Val^6-D-Ala^7-Met^8-Leu^9-D-Ala^10-Lys^11-Leu^12-Phe^13-NH2] (H-FLS[dA]IV[dA]ML[dA]KLF-NH2), the “MIC on H. pylori (ATCC 43504)” value (H. pylori (ATCC 43504) [1]; ATCC 43504, 24 h) is reported as 100 µM, the “increase in toxicity to human gastric cells compared to temporin-SHa” value (N87 cells) is reported as “twice” and the IC50 (N87 cells; 48 h) is reported as 762 ± 235 µM. The “membrane permeabilization of H. pylori (ranking in words)” value (H. pylori (ATCC 43504) [6]) was “weakest permeabilization effect” and the “critical pressure of insertion (CPI)” value [5] was 33.99 mN/m.

With `CC[C@H](C)[C@H](NC(=O)[C@H](C)NC(=O)[C@H](CO)NC(=O)[C@H](CC(C)C)NC(=O)[C@@H](N)Cc1ccccc1)C(=O)N[C@H](C(=O)NCC(=O)N[C@@H](CCSC)C(=O)N[C@@H](CC(C)C)C(=O)N[C@@H](C)C(=O)N[C@@H](CCCCN)C(=O)N[C@@H](CC(C)C)C(=O)N[C@@H](Cc1ccccc1)C(N)=O)C(C)C` [NSTL7, H-Phe^1-Leu^2-Ser^3-L-Ala^4-Ile^5-Val^6-Gly^7-Met^8-Leu^9-L-Ala^10-Lys^11-Leu^12-Phe^13-NH2] (H-FLSAIVGMLAKLF-NH2) the “MIC on H. pylori (ATCC 43504)” value (H. pylori (ATCC 43504) [1]; ATCC 43504, 24 h) was 50 µM, the IC50 (N87 cells; 48 h) was 2290 ± 762 µM and the “membrane permeabilization of H. pylori (ranking in words)” value (H. pylori (ATCC 43504) [6]) was “weakest permeabilization effect”. The “critical pressure of insertion (CPI)” value [5] was “not able to insert at all”.
